The text below walks through data of US9617258B2, “Pyrrolo[2,3-d]pyrimidinyl, pyrrolo[2,3-b]pyrazinyl and pyrrolo[2,3-d]pyridinyl acrylamides” (Pfizer Inc., priority 2013, dated 2017).

This series is described as follows: Stability of JAK3 covalent inhibitors in human whole blood.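 Note: parent compound remaining over incubation time quantified by LC-MS/MS as peak area ratio against an internal standard, using pooled K2-EDTA blood.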 As to conditions: both sexes, whole blood, 37° C., read-out: Human blood stability t1/2. It is filed as in vitro ADME.
Text: Stability of JAK3 Covalent Inhibitors in Rat and Human Whole Blood
Rat blood was collected from 3 male Sprague-Dawley rats (200-250 g, Charles River Laboratories) and pooled for each study. Human blood was collected from one male and one female healthy subjects at the Occupational Health & Wellness Center at Pfizer, Groton, CT and pooled for each study. Both rat and human blood was collected freshly into K2-EDTA tubes and kept on ice. An aliquot of the blood was transferred to microtubes and pre-warmed for 10 min at 37° C. using a heat block. […] An aliquot of the incubation mixture was removed at designated time points during the course of the incubation, mixed with an aliquot of acetonitrile containing an internal standard, vortexed and centrifuged. The resulting supernatants were removed and subjected to LC-MS/MS analyses to determine parent compound concentrations. Peak area ratios of the parent compound vs the internal standard were used to determine the % of parent compound remaining vs incubation time.
For `C=CC(=O)N1CCC(Nc2cnc3[nH]cc(C(=O)NC4CC(F)C4)c3n2)CC1` (stereo not shown) [Example 243, 2-[(1-acryloylpiperidin-4-yl)amino]-N-(3-fluorocyclobutyl)-5H-pyrrolo[2,3-b]pyrazine-7-carboxamide], the half-life at 1 μM was above 6 h. As for `C=CC(=O)N1CCC(Nc2cnc3[nH]cc(C(=O)N[C@H]4CC[C@@H](F)C4)c3n2)CC1` [Example 244, 2-[(1-acryloylpiperidin-4-yl)amino]-N-[(1S,3R)-3-fluorocyclopentyl]-5H-pyrrolo[2,3-b]pyrazine-7-carboxamide], the half-life at 1 μM came to 4.73 h. As to `C=CC(=O)N1CCC(Nc2cnc3[nH]cc(C(=O)NCCC(F)(F)F)c3n2)CC1` [Example 246, 2-[(1-acryloylpiperidin-4-yl)amino]-N-(3,3,3-trifluoropropyl)-5H-pyrrolo[2,3-b]pyrazine-7-carboxamide], the half-life at 1 μM is above 6 h. The figure for `C=CC(=O)N1CCC(Nc2cnc3[nH]cc(C(=O)N[C@H]4CC[C@H](F)C4)c3n2)CC1` [Example 247, 2-[(1-acryloylpiperidin-4-yl)amino]-N-[(1S,3S)-3-fluorocyclopentyl]-5H-pyrrolo[2,3-b]pyrazine-7-carboxamide] is 4.53 h.

With `C=CC(=O)N1CCC(Nc2cnc3[nH]cc(C(=O)N[C@@H]4CCC[C@@H]4F)c3n2)CC1` [Example 251, 2-[(1-acryloylpiperidin-4-yl)amino]-N-[(1R,2S)-2-fluorocyclopentyl]-5H-pyrrolo[2,3-b]pyrazine-7-carboxamide], the half-life at 1 μM is 3.35 h.

`C=CC(=O)N1CCC(Nc2cnc3[nH]cc(C(=O)NCC(C)CC(F)(F)F)c3n2)CC1` (stereo not shown) [Example 253, 2-[(1-acryloylpiperidin-4-yl)amino]-N-(4,4,4-trifluoro-2-methylbutyl)-5H-pyrrolo[2,3-b]pyrazine-7-carboxamide]: the half-life at 1 μM is above 6 h. The figure for `C=CC(=O)N1CCC(Nc2cnc3[nH]cc(C(=O)NC4CCCCC4(F)F)c3n2)CC1` (stereo not shown) [Example 256, 2-[(1-acryloylpiperidin-4-yl)amino]-N-(2,2-difluorocyclohexyl)-5H-pyrrolo[2,3-b]pyrazine-7-carboxamide] is 3.98 h; for `C=CC(=O)N1CCC(Nc2cnc3[nH]cc(C(=O)NC4CCC(F)(F)C4)c3n2)CC1` (stereo not shown) [Example 259, 2-[(1-acryloylpiperidin-4-yl)amino]-N-(3,3-difluorocyclopentyl)-5H-pyrrolo[2,3-b]pyrazine-7-carboxamide] it is above 6 h; for `C=CC(=O)N1CCC(Nc2cnc3[nH]cc(C(=O)NCCC#N)c3n2)CC1` [Example 261, 2-[(1-acryloylpiperidin-4-yl)amino]-N-(2-cyanoethyl)-5H-pyrrolo[2,3-b]pyrazine-7-carboxamide] it is above 6 h. For `C=CC(=O)N1CCC(Nc2cnc3[nH]cc(C(=O)NC(C)(C)C)c3n2)CC1` [Example 266, 2-[(1-acryloylpiperidin-4-yl)amino]-N-tert-butyl-5H-pyrrolo[2,3-b]pyrazine-7-carboxamide] the value was 5.6 h.

As to `C=CC(=O)N1CCC(Nc2cnc3[nH]cc(C(=O)N[C@@H](C)CCC)c3n2)CC1` [Example 267, 2-[(1-acryloylpiperidin-4-yl)amino]-N-[(2S)-pentan-2-yl]-5H-pyrrolo[2,3-b]pyrazine-7-carboxamide], the half-life at 1 μM stood at 3.73 h. The figure for `C=CC(=O)N1CCC(Nc2cnc3[nH]cc(C(=O)N[C@H](C)COC)c3n2)CC1` [Example 268, 2-[(1-acryloylpiperidin-4-yl)amino]-N-[(2R)-1-methoxypropan-2-yl]-5H-pyrrolo[2,3-b]pyrazine-7-carboxamide] is 4.8 h; for `C=CC(=O)N1CCC(Nc2cnc3[nH]cc(C(=O)NCCCC)c3n2)CC1` [Example 269, 2-[(1-acryloylpiperidin-4-yl)amino]-N-butyl-5H-pyrrolo[2,3-b]pyrazine-7-carboxamide] it is 4.27 h. For `C=CC(=O)N1CCC(Nc2cnc3[nH]cc(C(=O)NCC4CCCC4)c3n2)CC1` [Example 270, 2-[(1-acryloylpiperidin-4-yl)amino]-N-(cyclopentylmethyl)-5H-pyrrolo[2,3-b]pyrazine-7-carboxamide] the value was 3.87 h; for `C=CC(=O)N1CCC(Nc2cnc3[nH]cc(C(=O)NCC(C)(C)C)c3n2)CC1` [Example 271, 2-[(1-acryloylpiperidin-4-yl)amino]-N-(2,2-dimethylpropyl)-5H-pyrrolo[2,3-b]pyrazine-7-carboxamide], 2.28 h; for `C=CC(=O)N1CCC(Nc2cnc3[nH]cc(C(=O)NCC(C)C)c3n2)CC1` [Example 272, 2-[(1-acryloylpiperidin-4-yl)amino]-N-(2-methylpropyl)-5H-pyrrolo[2,3-b]pyrazine-7-carboxamide], 3.62 h. The figure for `C=CC(=O)N1CCC(Nc2cnc3[nH]cc(C(=O)NCC(F)(F)F)c3n2)CC1` [Example 273, 2-[(1-acryloylpiperidin-4-yl)amino]-N-(2,2,2-trifluoroethyl)-5H-pyrrolo[2,3-b]pyrazine-7-carboxamide] is 3.63 h. With `C=CC(=O)N1CCC(Nc2cnc3[nH]cc(C(=O)N[C@H](C)CCC)c3n2)CC1` [Example 274, 2-[(1-acryloylpiperidin-4-yl)amino]-N-[(2R)-pentan-2-yl]-5H-pyrrolo[2,3-b]pyrazine-7-carboxamide], the half-life at 1 μM was above 6 h. In the case of `C=CC(=O)N1CCC(Nc2cnc3[nH]cc(C(=O)NCCOC)c3n2)CC1` [Example 275, 2-[(1-acryloylpiperidin-4-yl)amino]-N-(2-methoxyethyl)-5H-pyrrolo[2,3-b]pyrazine-7-carboxamide], the half-life at 1 μM was above 6 h.

As for `C=CC(=O)N1CCC(Nc2cnc3[nH]cc(C(=O)NC(C)(C)CC)c3n2)CC1` [Example 276, 2-[(1-acryloylpiperidin-4-yl)amino]-N-(2-methylbutan-2-yl)-5H-pyrrolo[2,3-b]pyrazine-7-carboxamide], the half-life at 1 μM was 3.75 h. The figure for `C=CC(=O)N1CCC(Nc2cnc3[nH]cc(C(=O)N[C@@H](C)COC)c3n2)CC1` [Example 277, 2-[(1-acryloylpiperidin-4-yl)amino]-N-[(2S)-1-methoxypropan-2-yl]-5H-pyrrolo[2,3-b]pyrazine-7-carboxamide] is above 6 h. For `C=CC(=O)N1CCC(Nc2cnc3[nH]cc(C(=O)NC4CCCCC4)c3n2)CC1` [Example 278, 2-[(1-acryloylpiperidin-4-yl)amino]-N-cyclohexyl-5H-pyrrolo[2,3-b]pyrazine-7-carboxamide] the value was 3.93 h; for `C=CC(=O)N1CCC(Nc2cnc3[nH]cc(C(=O)NC4CCC4)c3n2)CC1` [Example 280, 2-[(1-acryloylpiperidin-4-yl)amino]-N-cyclobutyl-5H-pyrrolo[2,3-b]pyrazine-7-carboxamide], above 6 h; for `C=CC(=O)N1CCC(Nc2cnc3[nH]cc(C(=O)NC45CC(C4)C5)c3n2)CC1` [Example 281, 2-[(1-acryloylpiperidin-4-yl)amino]-N-(bicyclo[1.1.1]pent-1-yl)-5H-pyrrolo[2,3-b]pyrazine-7-carboxamide], 5.77 h. The figure for `C=CC(=O)N1CCC(Nc2cnc3[nH]cc(C(=O)NCC(C)(F)F)c3n2)CC1` [Example 282, 2-[(1-acryloylpiperidin-4-yl)amino]-N-(2,2-difluoropropyl)-5H-pyrrolo[2,3-b]pyrazine-7-carboxamide] is 4.05 h. In the case of `C=CC(=O)N1CCC(Nc2cnc3[nH]cc(C(=O)NC4CCCC4)c3n2)CC1` [Example 283, 2-[(1-acryloylpiperidin-4-yl)amino]-N-cyclopentyl-5H-pyrrolo[2,3-b]pyrazine-7-carboxamide], the half-life at 1 μM is above 6 h. For `C=CC(=O)N1CCC(Nc2cnc3[nH]cc(C(=O)N[C@@H](C)CC)c3n2)CC1` [Example 285, 2-[(1-acryloylpiperidin-4-yl)amino]-N-[(2S)-butan-2-yl]-5H-pyrrolo[2,3-b]pyrazine-7-carboxamide] the value was 5.75 h; for `C=CC(=O)N1CCC(Nc2cnc3[nH]cc(C(=O)NC(C)C4CC4)c3n2)CC1` (stereo not shown) [Example 288, 2-[(1-acryloylpiperidin-4-yl)amino]-N-(1-cyclopropylethyl)-5H-pyrrolo[2,3-b]pyrazine-7-carboxamide], 3.67 h; for `C=CC(=O)N1CCC(Nc2cnc3[nH]cc(C(=O)N[C@H](C)CC)c3n2)CC1` [Example 289, 2-[(1-acryloylpiperidin-4-yl)amino]-N-[(2R)-butan-2-yl]-5H-pyrrolo[2,3-b]pyrazine-7-carboxamide], above 6 h.

In the case of `C=CC(=O)N1CC[C@@H](Nc2cnc3[nH]cc(C(=O)NC(C)C)c3n2)[C@H](F)C1` [Example 291, 2-{[(3R,4R)-1-acryloyl-3-fluoropiperidin-4-yl]amino}-N-(propan-2-yl)-5H-pyrrolo[2,3-b]pyrazine-7-carboxamide], the half-life at 1 μM turned out to be 3.27 h. For `C=CC(=O)N1CCN(c2cnc3[nH]cc(C(=O)NC(C)C)c3n2)CC1(C)C` [Example 293, 2-(4-acryloyl-3,3-dimethylpiperazin-1-yl)-N-(propan-2-yl)-5H-pyrrolo[2,3-b]pyrazine-7-carboxamide] the value was above 6 h; for `C=CC(=O)N1CCN(c2cnc3[nH]cc(C(=O)NC(C)C)c3n2)C[C@@H]1C` [Example 295, 2-[(3S)-4-acryloyl-3-methylpiperazin-1-yl]-N-(propan-2-yl)-5H-pyrrolo[2,3-b]pyrazine-7-carboxamide], 3.15 h; for `C=CC(=O)N1CCN(c2cnc3[nH]cc(C(=O)NC(C)C)c3n2)C[C@@H]1CC` [Example 299, 2-[(3S)-4-acryloyl-3-ethylpiperazin-1-yl]-N-(propan-2-yl)-5H-pyrrolo[2,3-b]pyrazine-7-carboxamide], 3.32 h. As to `C=CC(=O)N1[C@@H]2CC[C@H]1CN(c1cnc3[nH]cc(C(=O)NC(C)C)c3n1)C2` [Example 301, 2-[(1R,5S)-8-acryloyl-3,8-diazabicyclo[3.2.1]oct-3-yl]-N-(propan-2-yl)-5H-pyrrolo[2,3-b]pyrazine-7-carboxamide], the half-life at 1 μM came out at 1.4 h.
